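Step 1: Grow cells in 96-well plates. Step 2: Expose to compound for 48 hours at 5 concentrations. Step 3: Interpolate endpoints linearly; if unreached, use highest concentration. TGI is the concentration that stops growth completely.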

Among the data in PubChem BioAssay (NCI) are TGI values, retold here.

Test systems include MDA-MB-435; T-47D breast; KM12 colon; SK-OV-3 ovarian; HCC-2998 colon; HCT-15 colon; MDA-MB-231 breast; A549 NSCLC; SNB-19 CNS; MALME-3M melanoma.
Common to all, as to experiment: NCI tumour cell line growth inhibition, 48 h

For `C=C1CC(Cn2ccc(=O)[nH]c2=O)(c2ccc(Cl)cc2)OC1=O` (stereo not given), the TGI was 21 µM with MDA-MB-435; 12.1 µM in the assay on T-47D breast; above 58.4 µM in the assay with KM12 colon; 28.3 µM with SK-OV-3 ovarian; 31.2 µM in the assay with HCC-2998 colon; 6.91 µM in the assay on HCT-15 colon. In addition, the TGI in the assay with MDA-MB-231 breast was 31.4 µM; with A549 NSCLC it was 32.2 µM; with SNB-19 CNS, above 71.1 µM; in the assay with MALME-3M melanoma it was 7.13 µM.

On to `C=C(C)COC1CCCCO1` (stereo not given), for which the TGI in the assay with MDA-MB-435, with T-47D breast, in the assay with KM12 colon, with SK-OV-3 ovarian, in the assay with HCC-2998 colon and in the assay on HCT-15 colon was above 100 µM each time. Also, the TGI with MDA-MB-231 breast, in the assay on A549 NSCLC, in the assay with SNB-19 CNS and with MALME-3M melanoma was above 100 µM in each case.

Consider `COC(=O)c1c(C#N)c(N)nc2c1CCC2`, for which the TGI with MDA-MB-435, in the assay on T-47D breast, in the assay on KM12 colon, with SK-OV-3 ovarian, in the assay with HCC-2998 colon and in the assay with HCT-15 colon was above 100 µM throughout. Also, the TGI with MDA-MB-231 breast, in the assay with A549 NSCLC, in the assay on SNB-19 CNS and in the assay with MALME-3M melanoma was above 100 µM in each case.

`C=CCN(CCNS(=O)(=O)c1ccc(C)cc1)S(=O)(=O)c1ccc(C)cc1`: the TGI with MDA-MB-435, in the assay on T-47D breast, in the assay on KM12 colon, in the assay on SK-OV-3 ovarian, in the assay on HCC-2998 colon and with HCT-15 colon was above 100 µM in each case. The TGI in the assay on MDA-MB-231 breast, in the assay with A549 NSCLC, in the assay with SNB-19 CNS and in the assay on MALME-3M melanoma was above 100 µM throughout.

Take `CC(=O)Oc1c2c(c3n(c1=O)CCCC3)C(=O)N(c1ccccc1)C2=O`: the TGI in the assay on MDA-MB-435 is above 100 µM; in the assay on T-47D breast it was above 100 µM; in the assay with KM12 colon, above 100 µM; in the assay with SK-OV-3 ovarian, above 100 µM; in the assay with HCC-2998 colon, 97.2 µM; in the assay on HCT-15 colon, above 100 µM. In addition, the TGI in the assay on MDA-MB-231 breast, with A549 NSCLC, with SNB-19 CNS and in the assay on MALME-3M melanoma was above 100 µM in each case.

As for `O=C1CC[C@@]2(O)[C@H]3Cc4ccc(-c5ccccc5)c5c4[C@@]2(CCN3CC2CC2)[C@H]1O5`, the TGI is 26.6 µM with MDA-MB-435; 35.7 µM in the assay with T-47D breast; 36.6 µM in the assay on KM12 colon; 54 µM in the assay on SK-OV-3 ovarian; 33.8 µM in the assay on HCC-2998 colon; 41.2 µM in the assay on HCT-15 colon. The TGI with MDA-MB-231 breast turned out to be 31.8 µM; in the assay with A549 NSCLC, 43.6 µM; in the assay with SNB-19 CNS, 59.6 µM; in the assay with MALME-3M melanoma, 29.9 µM.

With `COc1cc2c3c(n(C)c(=O)c2cc1OC)-c1cc2c(cc1/C3=C\CCCI)OCO2`, the TGI was above 100 µM in the assay on MDA-MB-435; above 95.4 µM in the assay with T-47D breast; above 100 µM with KM12 colon; above 100 µM with SK-OV-3 ovarian; above 100 µM in the assay on HCC-2998 colon; above 100 µM with HCT-15 colon. The TGI with MDA-MB-231 breast, with A549 NSCLC, in the assay on SNB-19 CNS and with MALME-3M melanoma was above 100 µM each time.

With `Cc1cc(S(=O)(=O)Nc2nc3ccccc3nc2-c2ccc(Cl)cc2)c(S)cc1Cl`, the TGI with MDA-MB-435 amounted to 34.5 µM; with T-47D breast, 32.8 µM; with KM12 colon, 35.4 µM; in the assay on SK-OV-3 ovarian it was 31.1 µM; in the assay with HCC-2998 colon, 29.1 µM; with HCT-15 colon, 42.2 µM. Moreover, the TGI came out at 54 µM in the assay with MDA-MB-231 breast, 33.6 µM in the assay on A549 NSCLC, 37 µM in the assay on SNB-19 CNS and 41.4 µM in the assay on MALME-3M melanoma.

`COc1ccc(N=NC(=O)NC(CC(C)C)C(N)=O)cc1` (stereo not given): the TGI in the assay on MDA-MB-435 was above 100 µM; in the assay on T-47D breast it was above 100 µM; with KM12 colon it was above 100 µM; in the assay with SK-OV-3 ovarian it was above 100 µM; in the assay with HCC-2998 colon it was above 31.6 µM; in the assay on HCT-15 colon it was above 31.6 µM. Further, the TGI was above 31.6 µM in the assay on MDA-MB-231 breast, above 31.6 µM in the assay with A549 NSCLC, above 100 µM in the assay on SNB-19 CNS and above 100 µM in the assay with MALME-3M melanoma.

In the case of `NC1=Nc2cc(Cl)ccc2Sc2nc3ccccc3n21`, the TGI with MDA-MB-435, with T-47D breast, in the assay with KM12 colon, with SK-OV-3 ovarian, in the assay with HCC-2998 colon and in the assay on HCT-15 colon was above 100 µM each time. The TGI with MDA-MB-231 breast, with A549 NSCLC, in the assay with SNB-19 CNS and in the assay with MALME-3M melanoma was above 100 µM each time.

For the compound `Cc1nc(C)c(N2CCNCC2)c(=O)[nH]1`, the TGI in the assay on MDA-MB-435, with T-47D breast, with KM12 colon, in the assay on SK-OV-3 ovarian, in the assay on HCC-2998 colon and with HCT-15 colon was above 100 µM each time. Besides, the TGI with MDA-MB-231 breast, in the assay with A549 NSCLC, in the assay with SNB-19 CNS and in the assay with MALME-3M melanoma was above 100 µM in each case.

For `Cc1ccc(C(=O)Nc2ccc(CP(=O)(O)O)cc2CP(=O)(O)O)cc1NC(=O)Nc1cc(C(=O)Nc2ccc(CP(=O)(O)O)cc2CP(=O)(O)O)ccc1C`, the TGI in the assay on MDA-MB-435, in the assay with T-47D breast, with KM12 colon, in the assay with SK-OV-3 ovarian, in the assay on HCC-2998 colon and in the assay with HCT-15 colon was above 100 µM in each case. In addition, the TGI with MDA-MB-231 breast, in the assay on A549 NSCLC, in the assay with SNB-19 CNS and in the assay with MALME-3M melanoma was above 100 µM in each case.

As for `Cc1ccc(-c2nc(N/N=C/c3ccc(O)cc3)c3ccccc3n2)cc1`, the TGI with MDA-MB-435 is 48.2 µM; in the assay with T-47D breast, 26 µM; in the assay with KM12 colon it was 41.4 µM; in the assay on SK-OV-3 ovarian, above 100 µM; in the assay with HCC-2998 colon it was 30.8 µM; in the assay on HCT-15 colon, above 100 µM. In addition, the TGI was 91.5 µM in the assay with MDA-MB-231 breast, above 100 µM in the assay with A549 NSCLC, above 100 µM in the assay on SNB-19 CNS and 29.4 µM in the assay with MALME-3M melanoma.
